Test results reported in patent publication US5202315A, “Cephalosporin compounds” (Lucky, Ltd., priority 1989, dated 1993).
Converted amounts (≈) assume the structure as drawn. Where two headings read alike, the source gives them in different places.

Tests used:
[1] = tested on: Staphylococcus aureus methicillin resistant; assay: Antibacterial activity against clinically isolated strains, MIC; format: cell-based; conditions: methicillin resistant, 7 clinical isolates, broth microdilution test; for MIC90: read-out: MIC 90%
[2] = tested on: Shigella flexneri ATCC 11836; assay: Antibacterial activity, MIC; format: cell-based; conditions: ATCC11836, agar two-fold dilution, 37° C., 20 hours
Procedure, shortened: (§1)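 Values reflect agar dilution testing: Mueller-Hinton medium, two-fold compound series, 2 μl inoculum of 10^7 CFU/ml, 20 h incubation at 37 °C.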

[3] = tested on: Proteus mirabilis ATCC 25933; assay: Antibacterial activity, MIC; format: cell-based; conditions: ATCC25933, ATCC 25933, agar two-fold dilution, 37° C., 20 hours, read-out: MIC
Procedure, shortened: as §1

[4] = tested on: Staphylococcus aureus ATCC 10537; assay: Antibacterial activity, MIC; format: cell-based; conditions: ATCC10537, ATCC 10537, agar two-fold dilution, 37° C., 20 hours, read-out: MIC
Procedure, shortened: as §1

[5] = tested on: Citrobacter freundii ATCC 8090; assay: Antibacterial activity, MIC; format: cell-based; conditions: ATCC8090, ATCC 8090, agar two-fold dilution, 37° C., 20 hours, read-out: MIC
Procedure, shortened: as §1

[6] = tested on: Morganella morganii ATCC 8076h; assay: Antibacterial activity, MIC; format: cell-based; conditions: ATCC8076H, agar two-fold dilution, 37° C., 20 hours
Procedure, shortened: as §1

[7] = tested on: Bacillus megaterium ATCC 9885; assay: Antibacterial activity, MIC; format: cell-based; conditions: Priestia megaterium, ATCC9885; ATCC 9885; agar two-fold dilution, 37° C., 20 hours; read-out: MIC
Procedure, shortened: as §1

[8] = tested on: Proteus vulgaris ATCC 6059; assay: Antibacterial activity, MIC; format: cell-based; conditions: ATCC6059, ATCC 6059, agar two-fold dilution, 37° C., 20 hours, read-out: MIC
Procedure, shortened: as §1

[9] = tested on: Shigella sonnei ATCC 11060; assay: Antibacterial activity, MIC; format: cell-based; conditions: ATCC11060, ATCC 11060, agar two-fold dilution, 37° C., 20 hours, read-out: MIC
Procedure, shortened: as §1

[10] = tested on: Staphylococcus epidermidis ATCC 12228; assay: Antibacterial activity, MIC; format: cell-based; conditions: ATCC12228, ATCC 12228, agar two-fold dilution, 37° C., 20 hours, read-out: MIC
Procedure, shortened: as §1

[11] = tested on: Enterobacter aerogenes ATCC 29751; assay: Antibacterial activity, MIC; format: cell-based; conditions: Klebsiella aerogenes, ATCC29751; ATCC 29751; agar two-fold dilution, 37° C., 20 hours; read-out: MIC
Procedure, shortened: as §1

[12] = tested on: Staphylococcus aureus ATCC 6538p; assay: Antibacterial activity, MIC; format: cell-based; conditions: ATCC6538P, ATCC 6538p, agar two-fold dilution, 37° C., 20 hours, read-out: MIC
Procedure, shortened: as §1

[13] = tested on: Acinetobacter calcoaceticus ATCC 15473; assay: Antibacterial activity, MIC; format: cell-based; conditions: ATCC15473, ATCC 15473, agar two-fold dilution, 37° C., 20 hours, read-out: MIC
Procedure, shortened: as §1

[14] = tested on: Salmonella typhimurium ATCC 14028; assay: Antibacterial activity, MIC; format: cell-based; conditions: Salmonella enterica; ATCC 14028; agar two-fold dilution, 37° C., 20 hours; read-out: MIC
Procedure, shortened: as §1

[15] = tested on: Pseudomonas aeruginosa ATCC 10145; assay: Antibacterial activity, MIC; format: cell-based; conditions: ATCC10145, ATCC 10145, agar two-fold dilution, 37° C., 20 hours, read-out: MIC
Procedure, shortened: as §1

[16] = tested on: Serratia marcescens ATCC 27117; assay: Antibacterial activity, MIC; format: cell-based; conditions: ATCC27117, ATCC 27117, agar two-fold dilution, 37° C., 20 hours, read-out: MIC
Procedure, shortened: as §1

[17] = tested on: Klebsiella pneumoniae ATCC 10031; assay: Antibacterial activity, MIC; format: cell-based; conditions: ATCC10031, ATCC 10031, agar two-fold dilution, 37° C., 20 hours, read-out: MIC
Procedure, shortened: as §1

[18] = tested on: Escherichia coli ATCC 10536; assay: Antibacterial activity, MIC; format: cell-based; conditions: ATCC10536, agar two-fold dilution, 37° C., 20 hours
Procedure, shortened: as §1

[19] = tested on: Pseudomonas aeruginosa ATCC 25619; assay: Antibacterial activity, MIC; format: cell-based; conditions: ATCC25619, ATCC 25619, agar two-fold dilution, 37° C., 20 hours, read-out: MIC
Procedure, shortened: as §1

[20] = tested on: Enterobacter cloacae ATCC 27508; assay: Antibacterial activity, MIC; format: cell-based; conditions: ATCC27508, ATCC 27508, agar two-fold dilution, 37° C., 20 hours, read-out: MIC
Procedure, shortened: as §1

[21] = tested on: Micrococcus luteus ATCC 9341; assay: Antibacterial activity, MIC; format: cell-based; conditions: ATCC9341, ATCC 9341, agar two-fold dilution, 37° C., 20 hours, read-out: MIC
Procedure, shortened: as §1

[22] = tested on: Providencia rettgeri ATCC 9250; assay: Antibacterial activity, MIC; format: cell-based; conditions: ATCC9250, agar two-fold dilution, 37° C., 20 hours
Procedure, shortened: as §1

[23] = tested on: Bacillus cereus ATCC 11778; assay: Antibacterial activity, MIC; format: cell-based; conditions: ATCC11778, ATCC 11778, agar two-fold dilution, 37° C., 20 hours, read-out: MIC
Procedure, shortened: as §1

[24] = tested on: Pseudomonas aeruginosa ATCC 27853; assay: Antibacterial activity, MIC; format: cell-based; conditions: ATCC27853, ATCC 27853, agar two-fold dilution, 37° C., 20 hours, read-out: MIC
Procedure, shortened: as §1

[25] = tested on: Escherichia coli ATCC 25922; assay: Antibacterial activity, MIC; format: cell-based; conditions: ATCC25922, agar two-fold dilution, 37° C., 20 hours
Procedure, shortened: as §1

[26] = In-vivo absorbency (plasma concentrations & pharmacokinetic parameters); design: species or system SD rat (male); conditions: plasma, SD male rat, iv 20 mg/kg; for concentration at 1 h: 60 min; for concentration at 1 h / concentration at 2 h: read-out: Plasma Conc.; for concentration at 2 h: 120 min; for AUC / half-life: two compartment model; for half-life: rat, iv, 20 mg/kg
From the text: The blood samples from the femoral vein of the rats were taken every hour after administration, and analyzed by bio-assay(agar well method).
Tested animal: SD male Rat (220~340 g)

Escherichia coli = assay: Antibacterial activity against clinically isolated strains, MIC; format: cell-based; conditions: 38 clinical isolates, broth microdilution test

Structure (SMILES)	MIC50 [1] [µg/mL]	MIC90 [1] [µg/mL]	MIC [2] [µg/mL]	MIC [3] [µg/mL]	MIC [4] [µg/mL]	MIC [5] [µg/mL]	MIC [6] [µg/mL]	MIC [7] [µg/mL]	MIC [8] [µg/mL]	MIC [9] [µg/mL]	MIC [10] [µg/mL]	MIC [11] [µg/mL]	MIC [12] [µg/mL]	MIC [13] [µg/mL]	MIC [14] [µg/mL]	MIC [15] [µg/mL]	MIC [16] [µg/mL]	MIC [17] [µg/mL]	MIC [18] [µg/mL]	MIC [19] [µg/mL]	further results
CC[n+]1c(N)cc(N)nc1SCC1=C(C(=O)[O-])N2C(=O)C(NC(=O)/C(=N\OC(C)C(=O)O)c3csc(N)n3)C2SC1 (stereo not shown) [Compound I-5]	> 128	> 128	0.031 (≈ 0.0497 µM)	0.031 (≈ 0.0497 µM)	2 (≈ 3.21 µM)	0.063 (≈ 0.101 µM)	≤ 0.008	1 (≈ 1.6 µM)	0.031 (≈ 0.0497 µM)	0.031 (≈ 0.0497 µM)	1 (≈ 1.6 µM)	0.5 (≈ 0.802 µM)	2 (≈ 3.21 µM)	4 (≈ 6.41 µM)	0.13 (≈ 0.208 µM)	2 (≈ 3.21 µM)	0.063 (≈ 0.101 µM)	0.031 (≈ 0.0497 µM)	0.063 (≈ 0.101 µM)	1 (≈ 1.6 µM)	MIC [20]: 0.016 µg/mL (≈ 0.0257 µM); MIC [21]: 0.25 µg/mL (≈ 0.401 µM); MIC [22]: ≤ 0.008 µg/mL; MIC [23]: 128 µg/mL (≈ 205 µM); MIC [24]: 1 µg/mL (≈ 1.6 µM); MIC [25]: 0.063 µg/mL (≈ 0.101 µM); concentration at 1 h [26]: 9700 ng/mL; concentration at 2 h [26]: 3000 ng/mL; AUC [26]: 39000 ng·h/mL; half-life ([26]; read-out: T1/2 (α)): 5 min; half-life ([26]; read-out: T1/2 (β)): 36 min; MIC50 (Escherichia coli): 0.063 µg/mL (≈ 0.101 µM); MIC90 (Escherichia coli): 0.13 µg/mL (≈ 0.208 µM)
Cc1c(N)nc(SCC2=C(C(=O)[O-])N3C(=O)C(NC(=O)/C(=N\OC(C)(C)C(=O)O)c4csc(N)n4)C3SC2)[n+](C)c1N (stereo not shown) [Compound I-30]	> 128	> 128	0.031 (≈ 0.0486 µM)	0.031 (≈ 0.0486 µM)	2 (≈ 3.14 µM)	0.13 (≈ 0.204 µM)	≤ 0.008	0.5 (≈ 0.784 µM)	0.063 (≈ 0.0988 µM)	0.063 (≈ 0.0988 µM)	2 (≈ 3.14 µM)	2 (≈ 3.14 µM)	4 (≈ 6.27 µM)	4 (≈ 6.27 µM)	0.25 (≈ 0.392 µM)	2 (≈ 3.14 µM)	0.13 (≈ 0.204 µM)	0.063 (≈ 0.0988 µM)	0.063 (≈ 0.0988 µM)	2 (≈ 3.14 µM)	MIC [20]: 0.063 µg/mL (≈ 0.0988 µM); MIC [21]: 0.5 µg/mL (≈ 0.784 µM); MIC [22]: ≤ 0.008 µg/mL; MIC [23]: 128 µg/mL (≈ 201 µM); MIC [24]: 2 µg/mL (≈ 3.14 µM); MIC [25]: 0.063 µg/mL (≈ 0.0988 µM); concentration at 1 h [26]: 9600 ng/mL; concentration at 2 h [26]: 2700 ng/mL; AUC [26]: 41800 ng·h/mL; half-life ([26]; read-out: T1/2 (α)): 4 min; half-life ([26]; read-out: T1/2 (β)): 30 min; MIC50 (Escherichia coli): 0.13 µg/mL (≈ 0.204 µM); MIC90 (Escherichia coli): 0.25 µg/mL (≈ 0.392 µM)
CC(O/N=C(\C(=O)NC1C(=O)N2C(C(=O)[O-])=C(CSc3nc(N)cc(N)[n+]3C)CSC12)c1csc(N)n1)C(=O)O (stereo not shown) [Compound I-4]	> 32	> 32	0.031 (≈ 0.0508 µM)	0.031 (≈ 0.0508 µM)	2 (≈ 3.28 µM)	0.063 (≈ 0.103 µM)	≤ 0.008	1 (≈ 1.64 µM)	0.031 (≈ 0.0508 µM)	0.031 (≈ 0.0508 µM)	2 (≈ 3.28 µM)	1 (≈ 1.64 µM)	4 (≈ 6.56 µM)	4 (≈ 6.56 µM)	0.13 (≈ 0.213 µM)	2 (≈ 3.28 µM)	0.063 (≈ 0.103 µM)	0.031 (≈ 0.0508 µM)	0.063 (≈ 0.103 µM)	2 (≈ 3.28 µM)	MIC [1]: > 32 µg/mL; MIC [20]: 0.016 µg/mL (≈ 0.0262 µM); MIC [21]: 0.5 µg/mL (≈ 0.82 µM); MIC [22]: ≤ 0.008 µg/mL; MIC [23]: > 128 µg/mL; MIC [24]: 1 µg/mL (≈ 1.64 µM); MIC [25]: 0.031 µg/mL (≈ 0.0508 µM); concentration at 1 h [26]: 2600 ng/mL; concentration at 2 h [26]: 400 ng/mL; AUC [26]: 18600 ng·h/mL; half-life ([26]; read-out: T1/2 (α)): 2 min; half-life ([26]; read-out: T1/2 (β)): 26 min; MIC50 (Escherichia coli): 0.031 µg/mL (≈ 0.0508 µM); MIC90 (Escherichia coli): 0.063 µg/mL (≈ 0.103 µM)
